The values that follow come from BindingDB's records for patent US11339122 (University of Pittsburgh, 2022).

SMILES strings stand for the structures.

This assay deals with Transient receptor potential cation channel subfamily V member 1 (Homo sapiens, UniProt Q8NER1). The assay is described as follows: RTX Competition Binding Assay. The method, then: Binding studies with [3H]RTX were carried out as follows. The binding assay mixtures were prepared in 1.5 ml centrifuge tubes and consisted of a fixed concentration (approximately 2 nM) of [3H]RTX (37 Ci/mmol specific activity, PerkinElmer Life Sciences), various concentrations of competing ligands, and […] of membranes from induced CHO-hTRPV1 expressing cells (approximately 1-3×10^6 cells) in Dulbecco's phosphate buffered saline (DPBS, with Ca2+ & Mg2+) for a total volume of 350 μl. The assay mix contained bovine serum albumin at a final concentration of 0.25 mg/ml (Cohn fraction V; Sigma-Aldrich, St. Louis, Mo.). In each set of experiments, nonspecific binding were determined in the presence of 200 nM non-radioactive RTX. The binding reaction was initiated by placing the assay mixture in a 37° C. shaking water bath for 60 minutes ([…]). The assay mixture was then chilled on ice for 2-3 min before adding 100 μl of α1-acid glycoprotein (2 mg/ml; Sigma-Aldrich) and mixed thoroughly. The tubes were kept on ice for an additional 10 min. The bound and free ligands were then separated by centrifugation (12,200 rpm for 15 minutes) in a Beckman Coulter centrifuge Allegra 21R. 200 μl of supernatant was collected for determination of free ligand. The remainder was removed by aspiration.
Transient receptor potential cation channel subfamily V member 1, sequence (Q8NER1 whole entry): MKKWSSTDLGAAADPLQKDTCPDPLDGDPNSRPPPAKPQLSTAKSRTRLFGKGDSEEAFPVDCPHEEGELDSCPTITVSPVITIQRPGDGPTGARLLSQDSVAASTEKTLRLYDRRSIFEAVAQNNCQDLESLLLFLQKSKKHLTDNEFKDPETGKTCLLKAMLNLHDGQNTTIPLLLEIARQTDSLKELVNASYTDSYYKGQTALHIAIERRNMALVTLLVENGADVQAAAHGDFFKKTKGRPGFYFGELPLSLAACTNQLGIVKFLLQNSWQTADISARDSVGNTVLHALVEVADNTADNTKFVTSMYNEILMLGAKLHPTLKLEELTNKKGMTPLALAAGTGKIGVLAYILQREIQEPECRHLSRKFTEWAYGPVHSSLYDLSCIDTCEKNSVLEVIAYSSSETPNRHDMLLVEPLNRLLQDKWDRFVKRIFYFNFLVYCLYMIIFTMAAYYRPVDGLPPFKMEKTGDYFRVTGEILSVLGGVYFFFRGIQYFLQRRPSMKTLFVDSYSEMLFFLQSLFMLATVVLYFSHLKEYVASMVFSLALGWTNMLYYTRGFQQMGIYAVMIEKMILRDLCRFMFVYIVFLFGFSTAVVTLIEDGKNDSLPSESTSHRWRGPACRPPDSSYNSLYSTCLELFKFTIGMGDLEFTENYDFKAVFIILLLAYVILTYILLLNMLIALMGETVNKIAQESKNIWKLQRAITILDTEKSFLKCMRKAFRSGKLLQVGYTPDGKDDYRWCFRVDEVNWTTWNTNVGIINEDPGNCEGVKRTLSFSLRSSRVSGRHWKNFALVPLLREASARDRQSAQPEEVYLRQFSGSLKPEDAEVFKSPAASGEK

Usually Ki stands for a measure of affinity in units of concentration, obtained from inhibition or displacement. Regarding `CCOC(=O)c1ccc(NC(=O)Nc2ccc(F)cc2)cc1` [US11339122, Compound 5b], the Ki is 2840 nM.
